Reference: the Deep4Chem optical property database
Blank lines part the entries; values can stand above or below the compound they belong to.

Test: solvent given as SMILES

Compound: COc1ccc(C2=CC(c3ccccc3)=[N+]3C2=Nc2c(-c4ccc(OC)cc4)cc(-c4ccccc4)n2[B-]3(F)F)cc1
fluorescence lifetime (in Cc1ccccc1): 1.56 ns

Compound: Cc1cc(C)c(C)c(B(c2c(C)c(C)cc(C)c2C)c2c(C)c(C)c(N3c4ccccc4Oc4ccccc43)c(C)c2C)c1C
fluorescence lifetime (in CC(C)(C)c1ccc(-n2c3ccc([Si](c4ccccc4)(c4ccccc4)c4ccccc4)cc3c3cc([Si](c4ccccc4)(c4ccccc4)c4ccccc4)ccc32)cc1): 5.9 ns

Compound: CCCCOC(=O)c1ccccc1-c1c2ccc(=[N+](CC)CC)cc-2oc2cc(N(CC)CC)ccc12
fluorescence lifetime (in CC#N): 1.61 ns
fluorescence lifetime (in CCO): 2.92 ns
fluorescence lifetime (in CN(C)C=O): 1.92 ns
fluorescence lifetime (in O): 1.67 ns

Compound: CC1=[N+]2C(=C(c3ccc(N4CCOCC4)cc3)c3ccc(C)n3[B-]2(F)F)C=C1
fluorescence lifetime (in C1CCCCC1): 2.15 ns
fluorescence lifetime (in Cc1ccccc1): 3.12 ns

Compound: COC(=O)C(NC(=O)OC(C)(C)C)c1ccc2oc(-c3ccc(F)cc3)nc2c1 (stereo not given)
fluorescence lifetime (in CC1CCCCC1): 1.23 ns
fluorescence lifetime (in CC#N): 1.47 ns
fluorescence lifetime (in CO): 1.53 ns

Compound: CN(C)CCCN1c2ccccc2CCc2ccc(Cl)cc21
fluorescence lifetime (in CC#N): 0.22 ns
fluorescence lifetime (in CO): 0.19 ns
fluorescence lifetime (in O): 0.18 ns

Compound: CC1=C(Br)C(C)=[N+]2C1=C(c1c(-c3ccccn3)nc3ccccn13)c1c(C)c(Br)c(C)n1[B-]2(F)F
fluorescence lifetime (in ClCCl): 0.9 ns

Compound: CCCCCCCCCCCCCCCCOc1cc(C#Cc2ccc3ccccc3c2-c2c(C#Cc3cc(OCCCCCCCCCCCCCCCC)c(C#Cc4ccc(C=C(C#N)C#N)cc4)cc3OCCCCCCCCCCCCCCCC)ccc3ccccc23)c(OCCCCCCCCCCCCCCCC)cc1C#Cc1ccc(C=C(C#N)C#N)cc1
fluorescence lifetime (in Brc1ccccc1): 2.8 ns
fluorescence lifetime (in C1CCCCC1): 2.02 ns
fluorescence lifetime (in C1CCOC1): 1.25 ns
fluorescence lifetime (in C1COCCO1): 3.06 ns
fluorescence lifetime (in CCCCCC): 2.15 ns
fluorescence lifetime (in CCCCCCCCO): 0.79 ns
fluorescence lifetime (in CCCCOCCCC): 2.74 ns
fluorescence lifetime (in CCOC(C)=O): 1.51 ns
fluorescence lifetime (in CCOCC): 3.29 ns
fluorescence lifetime (in Cc1ccccc1): 2.59 ns
fluorescence lifetime (in ClC(Cl)(Cl)Cl): 2.16 ns
fluorescence lifetime (in ClC(Cl)Cl): 2.35 ns
fluorescence lifetime (in ClCCl): 0.79 ns

Compound: N#CC=C(c1ccc(N2c3ccccc3Oc3ccccc32)cc1)c1ccc(N2c3ccccc3Oc3ccccc32)cc1
fluorescence lifetime (in Cc1ccccc1): 5.84 ns

Compound: c1ccc2c(c1)[nH]c1c3[nH]c4ccccc4c3c3nsnc3c21
fluorescence lifetime (in CN(C)C=O): 1.3 ns
fluorescence lifetime (in Cc1ccccc1): 1.02 ns
fluorescence lifetime (in ClCCl): 1.27 ns

Compound: c1csc(-c2ccc(-c3cccs3)s2)c1
fluorescence lifetime (in CC#N): 0.2 ns
fluorescence lifetime (in ClCCl): 0.17 ns

Compound: CCN(CC)c1ccc2c(-c3ccc(S(=O)(=O)O)cc3S(=O)(=O)[O-])c3ccc(=[N+](CC)CC)cc-3oc2c1
fluorescence lifetime (in CC#N): 2.47 ns
fluorescence lifetime (in CCO): 3 ns
fluorescence lifetime (in CN(C)C=O): 2.91 ns
fluorescence lifetime (in O): 1.78 ns

Compound: CN(C)c1ccc(/C=C2\CC/C(=C\c3ccc(C#N)cc3)C2=O)cc1
fluorescence lifetime (in C1CCOC1): 0.18 ns
fluorescence lifetime (in CC#N): 0.17 ns
fluorescence lifetime (in CC(C)=O): 0.23 ns
fluorescence lifetime (in CC(C)O): 0.21 ns
fluorescence lifetime (in CCCCO): 0.22 ns
fluorescence lifetime (in CCCCOC(C)=O): 1.01 ns
fluorescence lifetime (in CCCO): 0.18 ns
fluorescence lifetime (in CCO): 0.14 ns
fluorescence lifetime (in CCOC(=O)c1ccccc1): 1.24 ns
fluorescence lifetime (in CCOC(C)=O): 0.9 ns
fluorescence lifetime (in CCOCC): 0.89 ns
fluorescence lifetime (in CN(C)C=O): 0.18 ns
fluorescence lifetime (in CO): 0.13 ns
fluorescence lifetime (in CS(C)=O): 0.19 ns
fluorescence lifetime (in Cc1ccccc1): 0.56 ns
fluorescence lifetime (in ClC(Cl)(Cl)Cl): 0.17 ns
fluorescence lifetime (in ClC(Cl)Cl): 2.08 ns
fluorescence lifetime (in ClCCl): 1.29 ns
fluorescence lifetime (in Clc1ccccc1Cl): 2.18 ns
fluorescence lifetime (in O=C1CCCC1): 0.31 ns
fluorescence lifetime (in S=C=S): 0.28 ns
fluorescence lifetime (in c1ccccc1): 0.76 ns
fluorescence lifetime (in c1ccncc1): 0.41 ns

Compound: CC1(C)c2ccccc2N(c2ccc(-c3ccc4c(c3)C(=O)c3ccc(-c5ccc(N6c7ccccc7C(C)(C)c7ccccc76)cc5)cc3C4=O)cc2)c2ccccc21
fluorescence lifetime (in Cc1ccccc1): 4.2 ns
fluorescence lifetime (in c1ccc2c(c1)c1ccccc1n2-c1ccc(-c2ccc(-n3c4ccccc4c4ccccc43)cc2)cc1): 41 ns

The next lines start with the values.

fluorescence lifetime (in CC#N): 2.14 ns
Compound: COc1ccc(C#Cc2ccccc2C#Cc2ccc(OC)cc2)cc1

fluorescence lifetime (in CO): 8.2 ns
fluorescence lifetime (in ClC(Cl)Cl): 9.6 ns
fluorescence lifetime (in O): 4.3 ns
Compound: COCCOCCOCCN1C(=O)c2cc(NCCOCCO)c3c4c(cc(NCCOCCO)c(c24)C1=O)C(=O)N(CCOCCOCCOC)C3=O

fluorescence lifetime (in CC#N): 1.23 ns
Compound: COc1ccc2cc(/C=C/c3ccc([N+](=O)[O-])cc3)c(=O)oc2c1

fluorescence lifetime (in CC#N): 4.1 ns
fluorescence lifetime (in CCO): 3.99 ns
fluorescence lifetime (in CN(C)C=O): 3.74 ns
fluorescence lifetime (in O): 4.2 ns
Compound: COC(=O)c1ccccc1-c1c2ccc(=[NH2+])cc-2oc2cc(N)ccc12

fluorescence lifetime (in CCCCC): 0.65 ns
fluorescence lifetime (in CCCCCC): 0.62 ns
fluorescence lifetime (in CCCCCCC): 0.61 ns
fluorescence lifetime (in CCCCCCCC): 0.64 ns
fluorescence lifetime (in CCCCCCCCC): 0.62 ns
fluorescence lifetime (in CCCCCCCCCC): 0.64 ns
fluorescence lifetime (in CCCCCCCCCCCC): 0.64 ns
fluorescence lifetime (in CCCCCCCCCCCCC): 0.65 ns
fluorescence lifetime (in CCCCCCCCCCCCCCC): 0.64 ns
fluorescence lifetime (in CCCCCCCCCCCCCCCC): 0.63 ns
fluorescence lifetime (in CCCCCCCCCCO): 0.64 ns
fluorescence lifetime (in CCCCCCCCCO): 0.64 ns
fluorescence lifetime (in CCCCCCCCO): 0.63 ns
fluorescence lifetime (in CCCCCCCO): 0.64 ns
fluorescence lifetime (in CCCCCCO): 0.64 ns
fluorescence lifetime (in CCCCCO): 0.65 ns
fluorescence lifetime (in CCCCO): 0.64 ns
fluorescence lifetime (in CCCO): 0.65 ns
fluorescence lifetime (in CCO): 0.67 ns
fluorescence lifetime (in CO): 0.67 ns
Compound: CCC1(CC)c2cc(-c3ccc(C(C)(C)C)cc3)ccc2-c2ccc(-c3ccc4c(c3)C(CC)(CC)c3cc(-c5ccc6c(c5)C(CC)(CC)c5cc(-c7ccc(C(C)(C)C)cc7)ccc5-6)ccc3-4)cc21

fluorescence lifetime (in C1CCCCC1): 2 ns
Compound: C[Si](C)(C)C#Cc1ccc(C#C[Si](C)(C)C)c2ccccc12

fluorescence lifetime (in C1CCCCC1): 5.37 ns
fluorescence lifetime (in C1CCOC1): 12.4 ns
fluorescence lifetime (in CC#N): 16.7 ns
Compound: COc1ccc2nc3c(nc2c1)c(-c1ccccc1)nn3C

fluorescence lifetime (in CS(C)=O): 0.27 ns
Compound: COc1ccc(-c2nc3c(c4c2-c2ccc(C#N)cc2CC4)-c2ccc(C#N)cc2CC3)cc1

fluorescence lifetime (in ClCCl): 5.6 ns
Compound: COc1ccc(C(=O)c2c(C)c3ccc4cccc5c6cccc7ccc2c(c76)c3c45)cc1

fluorescence lifetime (in C1CCCCC1): 4.3 ns
Compound: CCCCc1cc2cccc[n+]2[b-]2c(-c3cccc4[b-]3[n+]3ccccc3cc4CCCC)cccc21

fluorescence lifetime (in ClC(Cl)Cl): 1.3 ns
Compound: Cc1cc(=O)oc2cc3c4ccc(C(C)(C)C)cc4c4cc(C(C)(C)C)ccc4c3cc12

fluorescence lifetime (in ClC(Cl)Cl): 3.4 ns
Compound: CCCCCCCCN1C(=O)c2ccc3c4c(-c5ccc(-n6c7ccccc7c7ccccc76)cc5)cc5c6c(ccc(c7c(-c8ccc(-n9c%10ccccc%10c%10ccccc%109)cc8)cc(c2c37)C1=O)c64)C(=O)N(CCCCCCCC)C5=O

fluorescence lifetime (in CC1CCCCC1): 1.25 ns
fluorescence lifetime (in CC#N): 1.24 ns
fluorescence lifetime (in CO): 1.32 ns
Compound: COC(=O)C(NC(=O)OC(C)(C)C)c1ccc2oc(-c3ccc(N(C)C)cc3OC)nc2c1 (stereo not given)

fluorescence lifetime (in C1CCCCC1): 30 ns
Compound: C[SiH](C)c1ccc([SiH](C)C)c2ccccc12

fluorescence lifetime (in ClCCl): 1.97 ns
Compound: CCCCOc1ccc(-c2oc3cc4n(c3c2-c2ccc(OCCCC)cc2)[B-](F)(F)[N+]2=Cc3cc5oc(-c6ccc(OCCCC)cc6)c(-c6ccc(OCCCC)cc6)c5n3[B-](F)(F)[N+]2=C4)cc1

fluorescence lifetime (in C1CCCCC1): 17.6 ns
fluorescence lifetime (in CC#N): 24.2 ns
fluorescence lifetime (in CO): 21.5 ns
fluorescence lifetime (in ClCCl): 17.6 ns
Compound: COc1c2ccccc2c(OC)c2c1c1c(C)ccc(OC)c1n2C

fluorescence lifetime (in O): 8.33 ns
Compound: COc1ccc2ccc(O)cc2c1

fluorescence lifetime (in C1CCCCC1): 3.1 ns
Compound: CN(C)c1ccc2nc(-c3ccc(C=C(C#N)C#N)cc3)sc2c1

fluorescence lifetime (in CC#N): 9.2 ns
Compound: COC(=O)[C@@]12N=N[C@@H](C3C[C@H]31)[C@@H]1C[C@@H]12 (stereo not given in full)

fluorescence lifetime (in CC#N): 2.41 ns
Compound: Cc1ccc2nc3[nH]c(=O)[nH]c(=O)c3nc2c1C

fluorescence lifetime (in CC#N): 3.05 ns
Compound: COc1ccc(-c2csc(/C(C#N)=C/c3ccc(Cl)cc3Cl)n2)cc1
